In patent US7507727B2, “Substituted quinobenzoxazine analogs and methods of using thereof” (Cylene Pharmaceuticals, Inc., priority 2003, dated 2009):

target: c-Myc template DNA (c-myc quadruplex); assay: Quadruplex binding / stop assay (Taq polymerase arrest, capillary electrophoresis); settings: read-out: Stop Data c-Myc μM; concentration at which 50% of the DNA was arrested (arrested:full-length 1:1)

Row | SMILES | IC50 [µM]
1 | CN1CCCC1CCNC(=O)c1cn2c3c(c(N4CCNC(c5cccnc5)C4)c(F)cc3c1=O)Oc1cc3ccccc3cc1-2 (stereo not drawn) [compound 265] | 1.75
2 | CN1CCCC1CCNC(=O)c1cn2c3c(c(NCCN4CCCC4)ccc3c1=O)Oc1cc3ccccc3cc1-2 (stereo not drawn) [compound 266] | 1.75
3 | O=C(NCCCN1CCOCC1)c1cn2c3c(c(NCCN4CCCC4)ccc3c1=O)Oc1cc3ccccc3cc1-2 [compound 267] | 1.75
4 | O=C(NCCN1CCOCC1)c1cn2c3c(c(NCCN4CCCC4)ccc3c1=O)Oc1cc3ccccc3cc1-2 [compound 268] | 1.75
5 | CN1CCCC1CCNc1ccc2c(=O)c(C(=O)NCCCN3CCOCC3)cn3c2c1Oc1cc2ccccc2cc1-3 (stereo not drawn) [compound 269] | 1.75
6 | CN1CCCC1CCNc1ccc2c(=O)c(C(=O)NC3CC(C)(C)NC(C)(C)C3)cn3c2c1Oc1cc2ccccc2cc1-3 (stereo not drawn) [compound 270] | 1.75
7 | CN1CCCC1CCNc1ccc2c(=O)c(C(=O)NCCN3CCOCC3)cn3c2c1Oc1cc2ccccc2cc1-3 (stereo not drawn) [compound 271] | 1.75
8 | O=C(NCCN1CCCC1)c1cn2c3c(c(NCCCN4CCOCC4)ccc3c1=O)Oc1cc3ccccc3cc1-2 [compound 272] | 1.75
9 | CN1CCCC1CCNC(=O)c1cn2c3c(c(NCCCN4CCOCC4)ccc3c1=O)Oc1cc3ccccc3cc1-2 (stereo not drawn) [compound 273] | 1.75
10 | CC1(C)CC(NC(=O)c2cn3c4c(c(N5CCC(NC(=O)OC(C)(C)C)C5)ccc4c2=O)Oc2cc4ccccc4cc2-3)CC(C)(C)N1 (stereo not drawn) [compound 274] | 1.75
11 | CN(C)CCCCNc1ccc2c(=O)c(C(=O)NCCC3CCCN3C)cn3c2c1Oc1cc2ccccc2cc1-3 (stereo not drawn) [compound 275] | 1.75
12 | CN(C)CCCCNc1ccc2c(=O)c(C(=O)NC3CC(C)(C)NC(C)(C)C3)cn3c2c1Oc1cc2ccccc2cc1-3 [compound 276] | 1.75
13 | CN(C)CCCCNC(=O)c1cn2c3c(c(NCCCCN(C)C)ccc3c1=O)Oc1cc3ccccc3cc1-2 [compound 277] | 1.75
14 | CN1CCN(CCCNc2ccc3c(=O)c(C(=O)NCCCN4CCOCC4)cn4c3c2Oc2cc3ccccc3cc2-4)CC1 [compound 278] | 1.75
15 | CN1CCN(CCCNc2ccc3c(=O)c(C(=O)NCCN4CCOCC4)cn4c3c2Oc2cc3ccccc3cc2-4)CC1 [compound 279] | 1.75
16 | NC1CCN(c2ccc3c(=O)c(C(=O)O)cn4c3c2Oc2cc3ccccc3cc2-4)C1 (stereo not drawn) [compound 280] | 1.75
17 | CN1CCCC1CCNC(=O)c1cn2c3c(c(N4CCC(N)CC4)c(F)cc3c1=O)Oc1cc3ccccc3cc1-2 (stereo not drawn) [compound 281] | 1.75
18 | NC1CCN(C(=O)c2cn3c4c(c(N5CC6CCCNC6C5)c(F)cc4c2=O)Oc2cc4ccccc4cc2-3)C1 (stereo not drawn) [compound 282] | 1.75
19 | CC(O)CNc1c(F)cc2c(=O)c(C(=O)NCCC3CCCN3C)cn3c2c1Oc1cc2ccccc2cc1-3 (stereo not drawn) [compound 283] | 1.75
20 | CN1CCCC1CCNC(=O)c1cn2c3c(c(NCCCCO)c(F)cc3c1=O)Oc1cc3ccccc3cc1-2 (stereo not drawn) [compound 284] | 1.75
21 | CC(CNc1c(F)cc2c(=O)c(C(=O)NCCC3CCCN3C)cn3c2c1Oc1cc2ccccc2cc1-3)c1ccccc1 (stereo not drawn) [compound 285] | 1.75
22 | COc1ccc(CCNc2c(F)cc3c(=O)c(C(=O)NCCC4CCCN4C)cn4c3c2Oc2cc3ccccc3cc2-4)cc1 (stereo not drawn) [compound 286] | 1.75

Row | SMILES | IC50 [µM]
23 | CN1CCCC1CCNC(=O)c1cn2c3c(c(NCCc4c[nH]c5ccccc45)c(F)cc3c1=O)Oc1cc3ccccc3cc1-2 (stereo not drawn) [compound 287] | 1.75
24 | COc1ccc2c(CCNc3c(F)cc4c(=O)c(C(=O)NCCC5CCCN5C)cn5c4c3Oc3cc4ccccc4cc3-5)c[nH]c2c1 (stereo not drawn) [compound 288] | 1.75
25 | COc1cccc(CCNc2c(F)cc3c(=O)c(C(=O)NCCC4CCCN4C)cn4c3c2Oc2cc3ccccc3cc2-4)c1 (stereo not drawn) [compound 289] | 1.75
26 | COc1ccc2[nH]cc(CCNc3c(F)cc4c(=O)c(C(=O)NCCC5CCCN5C)cn5c4c3Oc3cc4ccccc4cc3-5)c2c1 (stereo not drawn) [compound 290] | 1.75
27 | COc1ccc(OC)c(CCNc2c(F)cc3c(=O)c(C(=O)NCCC4CCCN4C)cn4c3c2Oc2cc3ccccc3cc2-4)c1 (stereo not drawn) [compound 291] | 1.75
28 | CN1CCCC1CCNC(=O)c1cn2c3c(c(NCC(O)CO)c(F)cc3c1=O)Oc1cc3ccccc3cc1-2 (stereo not drawn) [compound 292] | 1.75
29 | CN1CCCC1CCNC(=O)c1cn2c3c(c(NCCCO)c(F)cc3c1=O)Oc1cc3ccccc3cc1-2 (stereo not drawn) [compound 293] | 1.75
30 | C[C@H](O)CNc1c(F)cc2c(=O)c(C(=O)NCCC3CCCN3C)cn3c2c1Oc1cc2ccccc2cc1-3 (stereo partly drawn) [compound 294] | 1.75
31 | CC1CCCN(CCCNc2c(F)cc3c(=O)c(C(=O)NCCC4CCCN4C)cn4c3c2Oc2cc3ccccc3cc2-4)C1 (stereo not drawn) [compound 295] | 1.75
32 | CC1CCCC(C)N1CCCNc1c(F)cc2c(=O)c(C(=O)NCCC3CCCN3C)cn3c2c1Oc1cc2ccccc2cc1-3 (stereo not drawn) [compound 296] | 1.75
33 | CN1CCCC1CCNC(=O)c1cn2c3c(c(NCCCNC(=O)OC(C)(C)C)c(F)cc3c1=O)Oc1cc3ccccc3cc1-2 (stereo not drawn) [compound 297] | 1.75
34 | CN1CCCC1CCNc1c(F)cc2c(=O)c(C(N)=O)cn3c2c1Oc1cc2ccccc2cc1-3 (stereo not drawn) [compound 298] | 1.75
35 | COc1ccc2[nH]cc(CCNC(=O)c3cn4c5c(c(N6CCC(N)C6)c(F)cc5c3=O)Oc3cc5ccccc5cc3-4)c2c1 (stereo not drawn) [compound 299] | 1.75
36 | NC1CCN(c2c(F)cc3c(=O)c(C(=O)NCC(O)CO)cn4c3c2Oc2cc3ccccc3cc2-4)C1 (stereo not drawn) [compound 300] | 1.75
37 | CC1CCCN(CCCNC(=O)c2cn3c4c(c(N5CCC(N)C5)c(F)cc4c2=O)Oc2cc4ccccc4cc2-3)C1 (stereo not drawn) [compound 301] | 1.75
38 | CCCCN1CCC(CNC(=O)c2cn3c4c(c(N5CCC(N)C5)c(F)cc4c2=O)Oc2cc4ccccc4cc2-3)CC1 (stereo not drawn) [compound 302] | 1.75
39 | CN1CCN(CCCNC(=O)c2cn3c4c(c(N5CC[C@@H](N)C5)c(F)cc4c2=O)Oc2c-3ccc3ccccc23)CC1 [compound 304] | 1.13
40 | CCN(CC)CCNc1c(F)cc2c(=O)c(C(=O)N3CCOCC3)cn3c2c1Oc1cc2ccccc2cc1-3 [compound 305] | 1.05
41 | O=C(NCCCn1ccnc1)c1cn2c3c(c(NCCCN4CCOCC4)c(F)cc3c1=O)Oc1cc3c(cc1-2)oc1ccccc13 [compound 313] | 1
42 | O=C(NCCCn1ccnc1)c1cn2c3c(c(NCCCN4CCOCC4)c(F)cc3c1=O)Oc1cc3c(cc1-2)-c1ccccc1C3 [compound 314] | 1
43 | O=C(Nc1ccncc1)c1cn2c3c(c(NCCCN4CCOCC4)c(F)cc3c1=O)Oc1cc3c(cc1-2)oc1ccccc13 [compound 315] | 1
44 | CC(C)NCCCNc1c(F)cc2c(=O)c(C(=O)N3CCOCC3)cn3c2c1Oc1cc2ccccc2cc1-3 [compound 316] | 1

Row | SMILES | IC50 [µM]
45 | CN(C)CCCCNC(=O)c1cn2c3c(c(NCCN4CCCC4)c(F)cc3c1=O)Oc1cc3ccccc3cc1-2 [compound 317] | 1
46 | CN(C)CCCCNc1c(F)cc2c(=O)c(C(=O)NCCN3CCCC3)cn3c2c1Oc1cc2ccccc2cc1-3 [compound 318] | 1
47 | O=C(CCN1CCCCC1)N[C@@H]1CCN(c2c(F)cc3c(=O)c(C(=O)NCCN4CCOCC4)cn4c3c2Oc2cc3c(cc2-4)oc2ccccc23)C1 [compound 319] | 1
48 | O=C(O)c1cn2c3cc4c(cc3oc3c(F)c(F)cc(c1=O)c32)c(=O)c1ccccc14 [compound 320] | 1
49 | O=C(NCCN1CCOCC1)c1cn2c3cc4c(cc3oc3c(NCCN5CCOCC5)c(F)cc(c1=O)c32)c(=O)c1ccccc14 [compound 321] | 1
50 | CC(C)(C)OC(=O)N[C@@H]1CCN(c2c(F)cc3c(=O)c(C(=O)NCCCCN=C(N)N)cn4c3c2Oc2cc3ccccc3cc2-4)C1 [compound 322] | 1
51 | CC(C)(C)OC(=O)NC1CCN(c2c(F)cc3c(=O)c(C(=O)NCCCCN4CCCC4)cn4c3c2Oc2cc3ccccc3cc2-4)C1 (stereo not drawn) [compound 323] | 1
52 | CN1CCCC1CCNC(=O)c1cn2c3c(c(N4CCC(n5c(=O)[nH]c6ccccc65)CC4)c(F)cc3c1=O)Oc1cc3ccccc3cc1-2 (stereo not drawn) [compound 324] | 1
53 | CN1CCCC1CCNC(=O)c1cn2c3c(c(NC4CC(C)(C)NC(C)(C)C4)c(F)cc3c1=O)Oc1cc3ccccc3cc1-2 (stereo not drawn) [compound 325] | 1
54 | CN(C)CCCCNc1ccc2c(=O)c(C(=O)NCCN3CCCC3)cn3c2c1Oc1cc2ccccc2cc1-3 [compound 326] | 1
55 | N=C(N)NCCCNC(=O)c1cn2c3c(c(N4CC5CCCNC5C4)c(F)cc3c1=O)Oc1cc3ccccc3cc1-2 (stereo not drawn) [compound 327] | 1
56 | N=C(N)NCCCCNC(=O)c1cn2c3c(c(N4CC5CCCNC5C4)c(F)cc3c1=O)Oc1cc3ccccc3cc1-2 (stereo not drawn) [compound 328] | 1
57 | CN(C)CC(C)(C)CNC(=O)c1cn2c3c(c(N4CCC(N)C4)c(F)cc3c1=O)Oc1cc3ccccc3cc1-2 (stereo not drawn) [compound 329] | 1
58 | N=C(N)NCCCCNC(=O)c1cn2c3c(c(NCCCN4CCOCC4)c(F)cc3c1=O)Oc1cc3ccccc3cc1-2 [compound 330] | 1
59 | N=C(N)NCC1CCCC(CNC(=O)c2cn3c4c(c(NCCCN5CCOCC5)c(F)cc4c2=O)Oc2cc4ccccc4cc2-3)C1 (stereo not drawn) [compound 331] | 1
60 | CN(C)CC(C)(C)CNC(=O)c1cn2c3c(c(NCCCN4CCOCC4)c(F)cc3c1=O)Oc1cc3ccccc3cc1-2 [compound 332] | 1
61 | N=C(N)NCCCNC(=O)c1cn2c3c(c(NCCN4CCCC4)c(F)cc3c1=O)Oc1cc3ccccc3cc1-2 [compound 333] | 1
62 | N=C(N)NCCCCNC(=O)c1cn2c3c(c(NCCN4CCCC4)c(F)cc3c1=O)Oc1cc3ccccc3cc1-2 [compound 334] | 1
63 | CN1CCCC1CCNC(=O)c1cn2c3c(c(NCCCn4ccnc4)c(F)cc3c1=O)Oc1cc3ccccc3cc1-2 (stereo not drawn) [compound 335] | 1
64 | CCCCN1CCC(CNc2c(F)cc3c(=O)c(C(=O)NCCC4CCCN4C)cn4c3c2Oc2cc3ccccc3cc2-4)CC1 (stereo not drawn) [compound 336] | 1
65 | CC1CCCC(C)N1CCCNC(=O)c1cn2c3c(c(N4CCC(N)C4)c(F)cc3c1=O)Oc1cc3ccccc3cc1-2 (stereo not drawn) [compound 337] | 1
66 | CN1CCCC1CCNC(=O)c1cn2c3c(c(NC4CCS(=O)(=O)C4)c(F)cc3c1=O)Oc1cc3ccccc3cc1-2 (stereo not drawn) [compound 338] | 1
